Measured values published in patent US10168342B2, “Lipid probes and uses thereof” (THE SCRIPPS RESEARCH INSTITUTE, priority 2015, dated 2019).
Where two headings read alike, the source gives them in different places.

What was measured:
[1] = system: AEA-DA lipid probe targets in Neuro2a cells; conditions: for SILAC ratio, GM20425 (E9Q035): Neuro2a cells, AEA-DA probe
[2] = target: T1, AEA-DA lipid probe targets in Neuro2a cells (Mus musculus, UniProt Q80UU9); conditions: for SILAC ratio, PGRMC2 (Q80UU9): Neuro2a cells, AEA-DA probe
T1 sequence (Q80UU9 1-217): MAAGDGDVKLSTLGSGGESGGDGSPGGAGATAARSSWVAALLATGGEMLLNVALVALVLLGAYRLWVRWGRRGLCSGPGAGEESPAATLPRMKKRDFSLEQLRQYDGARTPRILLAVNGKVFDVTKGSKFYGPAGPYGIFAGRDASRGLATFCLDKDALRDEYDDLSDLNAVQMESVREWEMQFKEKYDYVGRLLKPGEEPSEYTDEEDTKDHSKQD

[3] = target: T2, AEA-DA lipid probe targets in Neuro2a cells (Mus musculus, UniProt P16014)
T2 sequence (P16014 21-677): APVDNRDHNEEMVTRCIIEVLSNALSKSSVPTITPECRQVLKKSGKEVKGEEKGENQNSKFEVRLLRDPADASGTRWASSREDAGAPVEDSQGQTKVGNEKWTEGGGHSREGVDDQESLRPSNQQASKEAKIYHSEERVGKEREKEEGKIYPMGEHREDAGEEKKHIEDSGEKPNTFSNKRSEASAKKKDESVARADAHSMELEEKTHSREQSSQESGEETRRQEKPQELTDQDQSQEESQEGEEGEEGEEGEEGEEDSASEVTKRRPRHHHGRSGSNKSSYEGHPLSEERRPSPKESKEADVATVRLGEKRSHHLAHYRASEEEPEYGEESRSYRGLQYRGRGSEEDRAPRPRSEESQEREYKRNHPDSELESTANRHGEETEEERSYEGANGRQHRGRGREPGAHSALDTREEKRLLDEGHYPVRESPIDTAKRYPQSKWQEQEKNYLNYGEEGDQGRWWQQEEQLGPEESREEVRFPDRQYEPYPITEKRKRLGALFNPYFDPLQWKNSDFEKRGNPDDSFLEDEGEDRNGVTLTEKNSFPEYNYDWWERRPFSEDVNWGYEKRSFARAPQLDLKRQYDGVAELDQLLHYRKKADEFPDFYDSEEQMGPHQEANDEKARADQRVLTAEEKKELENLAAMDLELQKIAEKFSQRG

[4] = target: AEA-DA lipid probe targets in Neuro2a cells (Mus musculus, UniProt Q60864)
[5] = target: T3, AEA-DA lipid probe targets in Neuro2a cells (Mus musculus, UniProt Q924Z4); conditions: for SILAC ratio, CERS2 (Q924Z4): Neuro2a cells, AEA-DA probe
T3 sequence (Q924Z4 1-380): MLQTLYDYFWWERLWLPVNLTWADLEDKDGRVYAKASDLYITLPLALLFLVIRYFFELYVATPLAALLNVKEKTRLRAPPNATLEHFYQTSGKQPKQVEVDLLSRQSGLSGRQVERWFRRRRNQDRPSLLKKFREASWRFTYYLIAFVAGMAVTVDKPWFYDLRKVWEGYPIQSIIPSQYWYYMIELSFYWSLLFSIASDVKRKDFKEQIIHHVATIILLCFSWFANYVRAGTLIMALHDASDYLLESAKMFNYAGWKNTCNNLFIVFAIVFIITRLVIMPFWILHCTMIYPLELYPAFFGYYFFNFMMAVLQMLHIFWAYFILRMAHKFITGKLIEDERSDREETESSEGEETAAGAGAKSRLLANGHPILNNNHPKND

[6] = target: T4, AEA-DA lipid probe targets in Neuro2a cells (Mus musculus, UniProt Q8CAQ8)
T4 sequence (Q8CAQ8 34-757): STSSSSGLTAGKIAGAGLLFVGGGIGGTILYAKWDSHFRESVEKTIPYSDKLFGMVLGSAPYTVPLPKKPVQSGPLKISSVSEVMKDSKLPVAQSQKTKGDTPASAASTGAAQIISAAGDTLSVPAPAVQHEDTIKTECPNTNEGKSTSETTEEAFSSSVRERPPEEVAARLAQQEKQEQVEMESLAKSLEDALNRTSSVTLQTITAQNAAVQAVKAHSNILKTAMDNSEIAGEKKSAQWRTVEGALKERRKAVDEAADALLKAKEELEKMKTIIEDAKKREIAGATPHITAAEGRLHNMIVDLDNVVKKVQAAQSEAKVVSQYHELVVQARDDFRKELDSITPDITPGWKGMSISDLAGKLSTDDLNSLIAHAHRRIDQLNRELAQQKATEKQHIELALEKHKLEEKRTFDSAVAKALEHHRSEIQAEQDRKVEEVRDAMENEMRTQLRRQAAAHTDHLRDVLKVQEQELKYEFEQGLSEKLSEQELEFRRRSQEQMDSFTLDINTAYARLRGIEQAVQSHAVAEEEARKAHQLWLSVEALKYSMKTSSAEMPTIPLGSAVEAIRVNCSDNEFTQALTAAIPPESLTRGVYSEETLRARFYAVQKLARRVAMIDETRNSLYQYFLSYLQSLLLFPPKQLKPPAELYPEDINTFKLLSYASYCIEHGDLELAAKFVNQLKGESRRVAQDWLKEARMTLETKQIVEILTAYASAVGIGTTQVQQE

[7] = target: AEA-DA lipid probe targets in Neuro2a cells (Mus musculus, UniProt P45377)
[8] = target: T5, AEA-DA lipid probe targets in Neuro2a cells (Mus musculus, UniProt O08547)
T5 sequence (O08547 1-215): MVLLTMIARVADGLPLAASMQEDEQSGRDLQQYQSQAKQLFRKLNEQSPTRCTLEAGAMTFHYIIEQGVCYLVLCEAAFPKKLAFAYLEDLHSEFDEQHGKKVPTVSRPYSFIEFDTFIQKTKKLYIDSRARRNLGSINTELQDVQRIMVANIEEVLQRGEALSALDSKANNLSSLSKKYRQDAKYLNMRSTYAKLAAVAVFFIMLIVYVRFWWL

[9] = target: AEA-DA lipid probe targets in Neuro2a cells (Mus musculus, UniProt O89079); conditions: competitor 25 μM
[10] = competitor 25 μM, first Tmpo line (r51)
[11] = competitor 25 μM, second Tmpo line (r55)

AEA-DA lipid probe targets in Neuro2a cells (Mus musculus, UniProt P45377), sequence (P45377 whole entry): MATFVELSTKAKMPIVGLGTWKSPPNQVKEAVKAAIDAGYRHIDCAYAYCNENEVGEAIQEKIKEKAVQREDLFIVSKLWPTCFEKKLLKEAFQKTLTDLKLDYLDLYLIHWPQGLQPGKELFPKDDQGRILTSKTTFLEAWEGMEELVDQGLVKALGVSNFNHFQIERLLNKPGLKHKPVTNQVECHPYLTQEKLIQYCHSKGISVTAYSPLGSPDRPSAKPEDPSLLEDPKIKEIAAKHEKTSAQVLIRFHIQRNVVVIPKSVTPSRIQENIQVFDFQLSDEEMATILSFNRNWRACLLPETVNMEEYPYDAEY
AEA-DA lipid probe targets in Neuro2a cells (Mus musculus, UniProt O89079), sequence (O89079 whole entry): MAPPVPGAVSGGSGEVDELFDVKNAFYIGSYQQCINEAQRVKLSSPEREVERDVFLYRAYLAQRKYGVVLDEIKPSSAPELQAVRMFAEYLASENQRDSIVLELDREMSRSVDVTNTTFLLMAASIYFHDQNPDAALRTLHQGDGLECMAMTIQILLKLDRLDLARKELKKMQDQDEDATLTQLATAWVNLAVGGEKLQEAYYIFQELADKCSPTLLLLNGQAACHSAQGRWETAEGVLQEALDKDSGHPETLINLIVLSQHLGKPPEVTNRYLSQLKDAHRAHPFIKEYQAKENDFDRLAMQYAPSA

CN1CCN(C(=O)c2c(-c3ccccc3)c3cc([N+](=O)[O-])ccc3n2C)CC1 [KML110, (1-Methyl-5-nitro-3-phenyl-1H-indol-2-yl)(4-methylpiperazin-1-yl)methanone]
SILAC ratio Akr1c12 ([1]; competitor 25 μM): 1.2
SILAC ratio H2-K1 ([1]; competitor 25 μM): 1.6
SILAC ratio Nup205 ([1]; competitor 25 μM): 1.2
SILAC ratio Uncharacterized ([1]; competitor 25 μM): 1.1
SILAC ratio, Gm20425 ([1]; competitor 25 μM): 1.5
SILAC ratio, Gm20671 ([1]; competitor 25 μM): 1.4
SILAC ratio, Tmpo [1, 10]: 1.5
SILAC ratio, Tmpo [1, 11]: 1.5
SILAC ratio, Pgrmc2 ([2]; competitor 25 μM): 1.6
SILAC ratio Chgb ([3]; competitor 25 μM): 1.1
SILAC ratio Stip1 ([4]; competitor 25 μM): 1.6
SILAC ratio, Cers2 ([5]; competitor 25 μM): 2.2
SILAC ratio Immt ([6]; competitor 25 μM): 1.3
SILAC ratio, Akr1b8 ([7]; competitor 25 μM): 3.1
SILAC ratio, Sec22b ([8]; competitor 25 μM): 1.4

C=CCN(C)CCCCCCOc1ccc(C(=O)c2ccc(Br)cc2)c(F)c1 [Ro 48-8071, reference compound]
SILAC ratio, GM20425 (E9Q035) ([1]; competitor 25 μM): 1.2
SILAC ratio Akr1c12 ([1]; competitor 25 μM): 0.9
SILAC ratio H2-K1 ([1]; competitor 25 μM): 0.9
SILAC ratio Nup205 ([1]; competitor 25 μM): 0.9
SILAC ratio Uncharacterized ([1]; competitor 25 μM): 1.0
SILAC ratio, Gm20425 ([1]; competitor 25 μM): 1.2
SILAC ratio, Gm20671 ([1]; competitor 25 μM): 1.3
SILAC ratio, Tmpo [1, 10]: 1.2
SILAC ratio, Tmpo [1, 11]: 1.2
SILAC ratio, PGRMC2 (Q80UU9) ([2]; competitor 25 μM): 1.3
SILAC ratio, Pgrmc2 ([2]; competitor 25 μM): 1.3
SILAC ratio Chgb ([3]; competitor 25 μM): 0.7
SILAC ratio Stip1 ([4]; competitor 25 μM): 1.0
SILAC ratio, CERS2 (Q924Z4) ([5]; competitor 25 μM): 1.6
SILAC ratio, Cers2 ([5]; competitor 25 μM): 1.6
SILAC ratio Cope [9]: 1.1
SILAC ratio Immt ([6]; competitor 25 μM): 1.0
SILAC ratio, Akr1b8 ([7]; competitor 25 μM): 1.4
SILAC ratio, Sec22b ([8]; competitor 25 μM): 1.1

CN1CCN(C(=O)c2[nH]c3ccc([N+](=O)[O-])cc3c2-c2ccccc2)CC1 [MJN228, (4-Methylpiperazin-1-yl)(5-nitro-3-phenyl-1H-indol-2-yl)methanone]
SILAC ratio, GM20425 (E9Q035) ([1]; competitor 25 μM): 1.7
SILAC ratio Nup205 ([1]; competitor 10 μM): 1.0
SILAC ratio Uncharacterized ([1]; competitor 10 μM): 1.1
SILAC ratio, Akr1b10 ([1]; competitor 10 μM): 2.1
SILAC ratio, Gm20425 ([1]; competitor 10 μM): 1.3
SILAC ratio, Tmpo ([1]; competitor 10 μM, first Tmpo line (r51)): 1.1
SILAC ratio, Tmpo ([1]; competitor 10 μM, second Tmpo line (r55)): 1.1
SILAC ratio H2-K1 ([1]; competitor 25 μM): 1.1
SILAC ratio Nup205 ([1]; competitor 25 μM): 1.2
SILAC ratio Uncharacterized ([1]; competitor 25 μM): 1.6
SILAC ratio, Gm20425 ([1]; competitor 25 μM): 1.7
SILAC ratio, Gm20671 ([1]; competitor 25 μM): 1.4
SILAC ratio, Tmpo [1, 10]: 1.4
SILAC ratio, Tmpo [1, 11]: 1.4
SILAC ratio Nup205 ([1]; competitor 50 μM): 1.1
SILAC ratio, Akr1b10 ([1]; competitor 50 μM): 2.6
SILAC ratio, Gm20425 ([1]; competitor 50 μM): 1.7
SILAC ratio, Tmpo ([1]; competitor 50 μM, first Tmpo line (r51)): 1.4
SILAC ratio, Tmpo ([1]; competitor 50 μM, second Tmpo line (r55)): 1.3
SILAC ratio Nup205 ([1]; competitor 100 μM): 1.2
SILAC ratio Uncharacterized ([1]; competitor 100 μM): 3.0
SILAC ratio, Akr1b10 ([1]; competitor 100 μM): 3.2
SILAC ratio, Gm20425 ([1]; competitor 100 μM): 2.9
SILAC ratio, Tmpo ([1]; competitor 100 μM, first Tmpo line (r51)): 2.1
SILAC ratio, Tmpo ([1]; competitor 100 μM, second Tmpo line (r55)): 2.0
SILAC ratio, PGRMC2 (Q80UU9) ([2]; competitor 25 μM): 1.5
SILAC ratio, Pgrmc2 ([2]; competitor 10 μM): 1.2
SILAC ratio, Pgrmc2 ([2]; competitor 25 μM): 1.5
SILAC ratio, Pgrmc2 ([2]; competitor 50 μM): 1.7
SILAC ratio, Pgrmc2 ([2]; competitor 100 μM): 2.0
SILAC ratio Chgb ([3]; competitor 10 μM): 1.2
SILAC ratio Chgb ([3]; competitor 25 μM): 0.9
SILAC ratio Chgb ([3]; competitor 50 μM): 0.4
SILAC ratio Chgb ([3]; competitor 100 μM): 0.4
SILAC ratio Stip1 ([4]; competitor 10 μM): 1.2
SILAC ratio Stip1 ([4]; competitor 25 μM): 1.3
SILAC ratio Stip1 ([4]; competitor 50 μM): 1.2
SILAC ratio Stip1 ([4]; competitor 100 μM): 1.9
SILAC ratio, CERS2 (Q924Z4) ([5]; competitor 25 μM): 3.1
SILAC ratio, Cers2 ([5]; competitor 10 μM): 2.0
SILAC ratio, Cers2 ([5]; competitor 25 μM): 3.1
SILAC ratio, Cers2 ([5]; competitor 50 μM): 5.2
SILAC ratio, Cers2 ([5]; competitor 100 μM): 6.8
SILAC ratio Cope [9]: 1.2
SILAC ratio Immt ([6]; competitor 10 μM): 1.1
SILAC ratio Immt ([6]; competitor 25 μM): 1.2
SILAC ratio Immt ([6]; competitor 50 μM): 1.1
SILAC ratio Immt ([6]; competitor 100 μM): 1.4
SILAC ratio, Akr1b8 ([7]; competitor 25 μM): 1.9
SILAC ratio, Akr1b8 ([7]; competitor 50 μM): 2.1
SILAC ratio, Akr1b8 ([7]; competitor 100 μM): 2.7
SILAC ratio, Sec22b ([8]; competitor 10 μM): 1.5
SILAC ratio, Sec22b ([8]; competitor 25 μM): 1.6
SILAC ratio, Sec22b ([8]; competitor 50 μM): 2.0
SILAC ratio, Sec22b ([8]; competitor 100 μM): 2.0
